From patent US9173915B1, “Antioxidant eye drops” (priority 2014, dated 2015)
Read-outs that look alike come from different tables or passages of the source.

Columns and labels:
[1] = system: lens oxidative stress after UV irradiation; assay: UV-induced cataract model: lens GSH and 4-HNE after UV irradiation; format: in vivo, Sprague Dawley rats
Source text: Exposure to UV irradiation is another major risk factor of cataractogenesis. UV-irradiation induces ROS, which results in a rapid loss of reduced lens gluthione (GSH), the major antioxidant in the lens, followed several weeks later by subsequent lens opacification. For this study, young female Sprague Dawley rats were divided into five equal groups. One group served as the non-irradiated control group, while the second group served as the untreated irradiated control group. The third group received topical Optixcare carbomer vehicle containing 3% JHX-4 (4-(5-hydroxypyrimidin-2-yl)-N,N-dimethyl-3,5-dioxopiperazine-1-sulfonamide (99% pure by HPLC), the fourth received the present antioxidant eye drops composition, prepared as described above and referred to as topical Optixcare EH, and the fifth group received 1 mL of the oral Ocu-GLO™ by gavage, as described above. Treatments began 3 days prior to irradiation and continued until termination of the experiment. Prior to irradiation, each rat was anesthetized by intraperitoneal (i.p.) injection of a mixture of 60 mg/kg of ketamine and 10 mg/kg of xylazine, and the right eye was dilated with 1% tropicamide ophthalmic solution. The contralateral eye was covered with an eye patch that was held in place with black tape. […] Protein levels in an aliquot of the supernatant were measured according to Bradford Assay. Another aliquot was deproteinized with equal volume of 20% TCA and the GSH levels in the deproteinized supernatants were measured at 412 nm according to the DTNB method.
To confirm that the reduced GSH levels after UV exposure were linked to increased levels of ROS, the lenticular levels of the oxidized membrane lipid 4-hydroxynonenol (4-HNE) were determined using a competitive ELISA in the remaining homogenate supernatants by using the OxiSelect HINE Adduct Competitive ELISA Assay Kit (Cell Biolabs, Inc., San Diego, Calif.) according to the manufacturer's instructions.

[2] = system: neural retina oxidative stress / photoreceptor layer; assay: Light-induced retinal degeneration in dark adapted rats; format: in vivo, Wistar rats
Source text: In the neural retina of dark adapted rats, exposure to light also results in the generation of ROS, iron dysregulation, and the release of iron from ferritin. In this animal model of age-related macular degeneration (AMD), Wistar rats were either orally treated with diet containing 0.05% of the multifunctional antioxidant JHX-4 or topically treated b.i.d. with Optixcare EH, with treatment beginning at the onset of two weeks of dark adaption.
As previously described in detail by Randazzo et al. (PLoS One, 2011, 6(7), p. e21926), groups containing twelve 4-5-week-old male Wistar rats receiving either normal rat chow (untreated), normal rat chow and topically treated with Optixcare EH b.i.d., or oral diet containing 0.05% of the multifunctional antioxidant JHX-4 were dark adapted for two weeks. Rats from each group were then individually placed into acrylic, flat bottom rodent restraints (Plas-labs, Inc., Lansing Mich.) in a light box apparatus and exposed for three hours to 1000 1× of cool white fluorescent lights (Lights of America, Los Angeles, Calif.). An additional group of non-treated rats were also placed into the light box apparatus for three hours, but not exposed to light (non-light-damaged rats, NLD). Immediately following light exposure, 8 light-damaged (LD) rats from each group and 8 NLD rats were immediately euthanized and the neural retinas were carefully dissected from the enucleated eye and frozen on dry ice for subsequent analysis. Subsequently, the thawed retinas were homogenized in lysis buffer for ELISA determinations using 4-HNE-His Adduct and Nitrotyrosine ELISA Kits. Additional thawed retinas were homogenized in RIPA buffer containing Halt Protease and Phosphatase Inhibitor Cocktail for western blot analysis of thioredoxin (TRx) and thioredoxin reductase (TRxR) expression levels. Protein samples were separated by SDS-PAGE and transferred onto nitrocellulose membranes. After blocking the membrane with 5% dry milk in 0.1% TBS-T, the membranes were then incubated overnight at 4° C. with the primary antibodies anti-TRx (1:1000 dilution) or anti-TRxR (1:2000 dilution). Subsequently, after washing with TBS-T, the membranes were incubated with a HRP-conjugated secondary antibody for 1 hour. The protein bands were visualized by chemiluminescence and exposure to x-ray film. Finally, the membranes were re-probed with antibody against GAPDH as an internal control. All visualized protein levels were quantified using the NIH ImageJ program available online at rsbweb.nih.gov/ij/.
Therefore, topical administration of Optixcare EH to light-exposed dark-adapted rats was not anticipated to result in any significant protection of retinal oxidative stress compared to the oral administration of the multifunctional antioxidant JHX-4. […] ROS and free radicals generated by retinal exposure to acute excessive light are also mediated by the thioredoxin (TRx)/thioredoxin reductase (TRxR) defense system. Therefore, the expression levels of both TRx and TRxR in the neural retinas of these rats were also examined.
The reduction of oxidative stress by JHX-4 and Optixcare EH was confirmed by histological measurements of the photoreceptor layers. After light exposure as described above, select rats in each group were returned to the dark environment for 7 additional days. Each rat was then euthanized by carbon dioxide asphyxiation, and the dorsal ventral orientation of each eye was marked with a cautery tool. […]

human RPE19 cells = system: human RPE19 cells; design: unit of the concentration uncertain; details: cited from earlier work
[3] = after 3 hours light exposure, ELISA

Compound	lenticular 4-HNE levels vs untreated rats exposed to UV irradiation (FIG. 4) ([1]; UV exposed lenses, competitive ELISA)	4-HNE lens levels, UV exposed vs unexposed contralateral eyes ([1]; competitive ELISA)	lens GSH levels, UV irradiated eye vs unexposed contralateral lens (FIG. 3) ([1]; pretreated 3 days, two days after 15 minutes UV irradiation)	photoreceptor layer (outer nuclear layer thickness), histology ([2]; 7 days in the dark after light exposure)	4-HNE-histidine adduct levels in the neural retina (FIG. 5A) [2, 3]	nitrotyrosine adduct levels in the neural retina (FIG. 5B) [2, 3]	expression of thioredoxin (TRx) in the neural retina (FIG. 6A) ([2]; light exposed rats, western blot)	expression of thioredoxin reductase (TRxR) in the neural retina (FIG. 6B) ([2]; light exposed rats, western blot, p<0.05)	reduction of in vitro proliferation of human RPE19 cells (human RPE19 cells; 50 (unit uncertain))	reduction of in vitro proliferation of human RPE19 cells (human RPE19 cells; 100 (unit uncertain))
CN(C)S(=O)(=O)N1CC(=O)N(c2ncc(O)cn2)C(=O)C1 [JHX-4, 4-(5-hydroxypyrimidin-2-yl)-N,N-dimethyl-3,5-dioxopiperazine-1-sulfonamide]	significantly lower	statistically similar	not significantly lower	only slightly decreased	neither oxidative marker significantly increased	neither oxidative marker significantly increased	reduced	significantly lowered		
Oc1ccc(C=Cc2cc(O)cc(O)c2)cc1 [resveratrol]									10%	25%
